The values below come from patent publication US20200022964A1, “COMPOSITIONS AND METHODS FOR TREATMENT OF INFLAMMATORY AUTOIMMUNE DISEASES” (New York University, priority 2018, published 2020).

Assay [1] concerns TNFRs expressed on cell surface. Nature of the assay: Flow cytometry of biotin-labelled TNF-α binding to RAW264.7 cell surface. The class given is cell-based. The settings on record: RAW264.7 cells; FFD 10 μM, TFD 1 μM overnight. How it is done: Flow cytometry. […] RAW 264.7 cells were seeded in a 12-well plate. […] Then the samples were analyzed at NYU core facilities using a FACS Calibur cell analyzer with CellQuest software.

Assay [2] has as its system TNF-α. Nature of the assay: qRT-PCR of TNF-α-induced IL-1β, IL-6 and Nos-2 mRNA in BMDMs. The class given is cell-based, mice. Conditions: TNF-α 10 ng/mL; FFD 1, 10 μM; TFD 0.1, 1 μM; 24 hours. How it is done:
Primary bone marrow derived macrophages (BMDMs) extraction. BMDMs were isolated from C57BL/6 and TNF-tg mice. After mice were sacrificed by cervical dislocation, the tibia and femur were isolated and both ends of the bones were cut to open the medullary cavity. Bone marrow cells were collected by centrifuge at 13000 g for 90 seconds and seeded in 6-well plates. Prior to their use in experiments, M-CSF (10 ng/ml, 576406, Biolegend) was added for 6 days to the BMDM culture medium.
(§1) qRT-PCR. Total RNA was extracted by RNeasy plus mini kit (74106, QIAGEN) and cDNA was synthesized using SuperScript® Reverse Transcriptase (M314C, promega Corporation). SYBR® Green PCR Master Mix (4309155, Applied Biosystems) was used to perform quantitative real-time PCR (qRT-PCR) and the reaction was performed on a StepOnePlus™ real-time PCR Systems (Applied Biosystems). The mRNA expression level of target genes was calculated by ΔΔCT and fold changes of mRNA levels were normalized to GAPDH.

Assay [3] deals with T1, cPLA2 (Mus musculus, UniProt P47713).
T1 sequence (P47713 1-748): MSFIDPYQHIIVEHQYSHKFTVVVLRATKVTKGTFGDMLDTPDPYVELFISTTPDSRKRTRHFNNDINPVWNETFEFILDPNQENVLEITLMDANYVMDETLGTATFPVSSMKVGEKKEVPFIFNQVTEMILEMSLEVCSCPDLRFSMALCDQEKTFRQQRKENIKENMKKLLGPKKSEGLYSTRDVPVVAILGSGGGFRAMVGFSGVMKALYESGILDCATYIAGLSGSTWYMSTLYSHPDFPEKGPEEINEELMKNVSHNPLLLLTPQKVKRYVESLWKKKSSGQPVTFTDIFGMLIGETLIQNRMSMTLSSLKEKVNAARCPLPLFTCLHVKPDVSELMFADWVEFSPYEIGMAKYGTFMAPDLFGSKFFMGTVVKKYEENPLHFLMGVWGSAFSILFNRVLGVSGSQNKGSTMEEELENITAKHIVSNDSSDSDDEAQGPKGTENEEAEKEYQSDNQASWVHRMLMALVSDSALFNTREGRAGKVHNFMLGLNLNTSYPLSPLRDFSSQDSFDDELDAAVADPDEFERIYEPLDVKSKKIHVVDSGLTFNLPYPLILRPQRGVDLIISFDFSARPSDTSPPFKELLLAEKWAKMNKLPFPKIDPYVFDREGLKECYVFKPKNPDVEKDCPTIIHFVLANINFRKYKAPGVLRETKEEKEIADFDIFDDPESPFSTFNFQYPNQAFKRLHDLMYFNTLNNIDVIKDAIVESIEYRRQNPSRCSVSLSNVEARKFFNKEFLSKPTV
Nature of the assay: CETSA assay in RAW264.7 cells. The assay is classed as binding. Set-up: endogenous in cells; host or cells: RAW264.7. The settings on record: for EC50: CETSA at 49° C., 0.001 μM to 100 μM, read-out: EC50 of prevention of cPLA2 denaturation (isothermal dose response). How it is done: CETSA assay. RAW264.7 cells were treated with FFD (10 μM)/TFD (1 μM) for 1 hour in a 37° C. incubator with 5% CO2. Cells were harvested and divided equally into different tubes, after which the cells were heated to different temperatures for 3 minutes. After lysis via 3 repeated freeze-thaw cycles, samples underwent centrifugation at 20000 g and supernatants were collected for analysis. For the isothermal dose response, a series of ten-fold change concentrations (ranged from 0.001 μM to 100 μM) of FFD/TFD were used to treat cells and no variation in temperature was introduced. The remaining steps are the same as previously reported^5.

In assay [4] the test system is TNF-α/NF-κB signaling pathway. Nature of the assay: NF-κB beta-lactamase reporter gene assay in NF-κB-bla THP-1 cell line. The class given is cell-based. Conditions: THP-1 cells, drug overnight; for TNF-α-activated NF-κB reporter gene: then TNF-α 6 hours. The method, then:
In vitro and in vivo screen of FDA-approved drug library. NF-κB-bla THP-1 cell line in which NF-κB beta-lactamase reporter gene was stably integrated, RAW 264.7 macrophages in which NF-κB luciferase reporter gene was transiently transfected, and TNF-tg:NF-κB-Luc double mutant reporter mice were employed to screen the drug library. Screening FDA approved drugs in vitro. NF-κB-bla THP-1 cell line ([…], Invitrogen) was cultured in 96-well plates and FDA approved drugs (10 μM, L1300, Selleckchem) were added and cultured overnight. Next day, […] Loading Kit with CCF2-AM ([…], Invitrogen) was used to detect the β-lactamase activity via SpectraMax i3x system (5025027A Molecular Devices) with excitation wavelength at 409 nm and emission wavelengths at 520 nm or 470 nm. This process was performed in triplicate. Subsequently, the drugs from first screening that could inhibit TNF-α induced NF-κB activity underwent further screening by NF-κB luciferase assay. After transfection with NF-κB luciferase reporter gene and Renilla plasmids for 8 hours, cells were treated with drugs (10 μM) overnight, followed by TNF-α (10 ng/ml) stimulation for 6 hours, then bioluminescence was measured by Dual-Luciferase® Reporter Assay kit (E1910, Promega). The data were analyzed by Graphpad Prism software (GraphPad Software, San Diego, Calif.).

Assay [5] has as its system TNF-α. Nature of the assay: TNF-α induced cytokine expression and release in RAW264.7 cells (incl. H1R1 siRNA and cPLA2 knockout). The class given is cell-based. Conditions: FFD 10 μM; for effect of suppression of H1R1 on the inhibition of TNF-induced cytokine release: RAW264.7 cells with H1R1 siRNAs. The method, then: as §1
Knock down of H1R1 by siRNA. BMDMs were transfected with siH1R1, or scrambled control siRNA (scRNAi) using lipofectamine 2000 (11668-019, Invitrogen) according to manufacturer's specifications. After 24 hours, supernatants and lysate were collected to detect cytokine secretion and protein expression, respectively.
Knock out of cPAL2 by CRISPR-Cas9. Knockout cells were generated in accordance with a previously published protocol. gRNA was inserted into the lentiCRISPR v2 vector. Packaging the inserted vector into lentivirus was completed by co-transfecting the lentiCRISPR v2, VSVG and ΔR6.7 in 293T cells. After packaging, we transfected the virus into RAW264.7 cells over 8 hours. Puromycin (2 μg/ml) was used to select the stably transfected RAW264.7 cells

Assay [6] relates to DBA/1J mice. Nature of the assay: Collagen induced arthritis model in DBA/1J mice. Conditions: for loss of cartilage (Safranin O staining of ankle) / serum levels of IL-1β and IL-6 / arthritis clinical scores and incidence / onset of disease: prevention; for arthritis clinical scores and incidence / onset of disease: oral daily from 18 days after immunization, FFD 10 mg/kg, TFD 50 mg/kg; for disease scores: therapeutic, treatment initiated at clinical score of ˜5 points, FFD 0.4, 2, 10 mg/kg, TFD 2, 10, 50 mg/kg oral, 24 days.

In the case of `CC(C)(C)c1ccc(C(O)CCCN2CCC(C(O)(c3ccccc3)c3ccccc3)CC2)cc1` (stereo not drawn) [terfenadine], the “binding of TNF-α to the cell surface” value in assay [1] is recorded as “did not affect”. For the same compound, the “TNF-α-induced mRNA expressions of IL-1β, IL-6 and Nos-2” value in assay [2] was “dose-dependently inhibited”. Moreover, the EC50 in assay [3] worked out at 1.45 nM. Besides, the “Tm of cPLA2 (CETSA melt curve)” value in assay [3] (RAW264.7 cells, FFD 10 μM, TFD 1 μM, 1 hour, control DMSO 46.09) was 49.08 °C. Moreover, the “TNF-α-activated NF-κB reporter gene” value in assay [4] is listed as “inhibit”. For the same compound, the “effect of suppression of H1R1 on the inhibition of TNF-induced cytokine release” value in assay [5] is “did not affect”. In addition, in assay [6], the “loss of cartilage (Safranin O staining of ankle)” value is recorded as “prevented the loss of cartilage”; the “serum levels of IL-1β and IL-6” value was “significantly reduced”; the “arthritis clinical scores and incidence” value is “significantly decrease”; the onset of disease result is on record as “delay the onset”. The disease scores entry in assay [6] is listed as “dose-dependently ameliorated”.

Consider `CC(C)(C(=O)O)c1ccc(C(O)CCCN2CCC(C(O)(c3ccccc3)c3ccccc3)CC2)cc1` (stereo not drawn) [fexofenadine], for which, in assay [1], the “binding of TNF-α to the cell surface” value is “did not affect”. Moreover, in assay [2], the “TNF-α-induced mRNA expressions of IL-1β, IL-6 and Nos-2” value is reported as “dose-dependently inhibited”. Also, the EC50 in assay [3] turned out to be 102 nM. The “AA activation of the NF-κB reporter gene” value in assay [4] (then AA 6 hours) is recorded as “did not constrain”. In addition, the “TNF-α-activated NF-κB reporter gene” value in assay [4] is “inhibited”. For the same compound, the “TNF-α-activated NF-κB reporter gene” value in assay [4] (listed as FFD) is “inhibit”. Besides, the “effect of suppression of H1R1 on the inhibition of TNF-induced cytokine release” value in assay [5] is “did not affect”. Further, in assay [5] (cPLA2 KO RAW264.7 cells), the “inhibition of TNF-α activity (IL-1β, IL-6 release) in cPLA2 knockout cells” value is “entirely or almost entirely lost”. In addition, in assay [6], the “loss of cartilage (Safranin O staining of ankle)” value is “prevented the loss of cartilage”; the “serum levels of IL-1β and IL-6” value is given as “significantly reduced”; the “arthritis clinical scores and incidence” value was “significantly decrease”; the onset of disease entry was “delay the onset”. Moreover, in assay [6], the disease scores entry is “dose-dependently ameliorated”.
